Experimental data reported in patent US11912703B2, “6-azaindole compounds” (BRISTOL-MYERS SQUIBB COMPANY, priority 2017, dated 2024).
Read-outs that look alike come from different tables or passages of the source.

Legend:
human TLR7 = human TLR7 (Homo sapiens (Human), UniProt Q9NYK1); assay: TLR7 inhibition reporter assay (HEK-Blue SEAP); type: cell-based; settings: HEK-Blue cells overexpressing human TLR7, gardiquimod 7.5 μM stimulation
human TLR8 = human TLR8 (Homo sapiens (Human), UniProt Q9NR97); assay: TLR8 inhibition reporter assay (HEK-Blue SEAP);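 further: SEAP driven by IFN-β minimal promoter with five NF-κB and AP-1 sites, compounds tested 0.05 nM to 50 µM, 22 h incubation, inhibition relative to agonist plus DMSO wells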
human TLR9 = human TLR9 (Homo sapiens (Human), UniProt Q9NR96); assay: TLR9 inhibition reporter assay (HEK-Blue SEAP);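 further: SEAP driven by IFN-β minimal promoter carrying five NF-κB and AP-1 sites, 22 h at 37 °C, compounds 0.05 nM–50 µM, inhibition scaled between agonist-plus-DMSO and reference-inhibitor wells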
[1] = read-out: TLR8 IC50; HEK-Blue cells overexpressing human TLR8, R848 15.9 μM stimulation, SEAP reporter
[2] = read-out: TLR9 IC50; HEK-Blue cells overexpressing human TLR9, ODN2006 5 nM stimulation, SEAP reporter
[3] = read-out: TLR8 IC50; HEK-Blue cells overexpressing human TLR8; R848 15.9 μM stimulation; SEAP reporter
[4] = read-out: TLR9 IC50; HEK-Blue cells overexpressing human TLR9; ODN2006 5 nM stimulation; SEAP reporter

human TLR7, sequence (Q9NYK1 27-1049): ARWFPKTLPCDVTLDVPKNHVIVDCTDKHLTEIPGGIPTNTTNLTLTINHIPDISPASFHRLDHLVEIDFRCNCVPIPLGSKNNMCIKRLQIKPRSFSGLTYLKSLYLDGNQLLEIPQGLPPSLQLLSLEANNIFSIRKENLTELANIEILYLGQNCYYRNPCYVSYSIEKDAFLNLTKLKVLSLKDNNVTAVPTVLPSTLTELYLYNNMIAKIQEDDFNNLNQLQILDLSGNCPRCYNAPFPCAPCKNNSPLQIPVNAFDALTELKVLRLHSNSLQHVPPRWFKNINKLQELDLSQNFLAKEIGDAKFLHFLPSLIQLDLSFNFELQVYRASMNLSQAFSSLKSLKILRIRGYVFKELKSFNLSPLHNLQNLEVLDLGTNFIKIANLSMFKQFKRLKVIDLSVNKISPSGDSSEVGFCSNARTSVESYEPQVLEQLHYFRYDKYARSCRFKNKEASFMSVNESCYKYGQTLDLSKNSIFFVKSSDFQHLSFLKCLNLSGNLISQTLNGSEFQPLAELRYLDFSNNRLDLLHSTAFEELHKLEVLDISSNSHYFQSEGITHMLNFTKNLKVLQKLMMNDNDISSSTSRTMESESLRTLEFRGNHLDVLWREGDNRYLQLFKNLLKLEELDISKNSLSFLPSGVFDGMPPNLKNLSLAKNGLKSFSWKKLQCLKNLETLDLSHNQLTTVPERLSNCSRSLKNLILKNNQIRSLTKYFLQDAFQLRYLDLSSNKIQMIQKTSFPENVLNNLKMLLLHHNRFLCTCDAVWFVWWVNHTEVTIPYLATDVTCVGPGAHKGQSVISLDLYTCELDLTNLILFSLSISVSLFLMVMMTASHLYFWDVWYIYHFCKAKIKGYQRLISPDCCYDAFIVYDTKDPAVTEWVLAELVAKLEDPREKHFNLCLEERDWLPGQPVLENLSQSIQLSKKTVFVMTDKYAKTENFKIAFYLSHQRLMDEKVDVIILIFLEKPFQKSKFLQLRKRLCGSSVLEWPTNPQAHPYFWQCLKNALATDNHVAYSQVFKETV
human TLR8, sequence (Q9NR97 27-1041): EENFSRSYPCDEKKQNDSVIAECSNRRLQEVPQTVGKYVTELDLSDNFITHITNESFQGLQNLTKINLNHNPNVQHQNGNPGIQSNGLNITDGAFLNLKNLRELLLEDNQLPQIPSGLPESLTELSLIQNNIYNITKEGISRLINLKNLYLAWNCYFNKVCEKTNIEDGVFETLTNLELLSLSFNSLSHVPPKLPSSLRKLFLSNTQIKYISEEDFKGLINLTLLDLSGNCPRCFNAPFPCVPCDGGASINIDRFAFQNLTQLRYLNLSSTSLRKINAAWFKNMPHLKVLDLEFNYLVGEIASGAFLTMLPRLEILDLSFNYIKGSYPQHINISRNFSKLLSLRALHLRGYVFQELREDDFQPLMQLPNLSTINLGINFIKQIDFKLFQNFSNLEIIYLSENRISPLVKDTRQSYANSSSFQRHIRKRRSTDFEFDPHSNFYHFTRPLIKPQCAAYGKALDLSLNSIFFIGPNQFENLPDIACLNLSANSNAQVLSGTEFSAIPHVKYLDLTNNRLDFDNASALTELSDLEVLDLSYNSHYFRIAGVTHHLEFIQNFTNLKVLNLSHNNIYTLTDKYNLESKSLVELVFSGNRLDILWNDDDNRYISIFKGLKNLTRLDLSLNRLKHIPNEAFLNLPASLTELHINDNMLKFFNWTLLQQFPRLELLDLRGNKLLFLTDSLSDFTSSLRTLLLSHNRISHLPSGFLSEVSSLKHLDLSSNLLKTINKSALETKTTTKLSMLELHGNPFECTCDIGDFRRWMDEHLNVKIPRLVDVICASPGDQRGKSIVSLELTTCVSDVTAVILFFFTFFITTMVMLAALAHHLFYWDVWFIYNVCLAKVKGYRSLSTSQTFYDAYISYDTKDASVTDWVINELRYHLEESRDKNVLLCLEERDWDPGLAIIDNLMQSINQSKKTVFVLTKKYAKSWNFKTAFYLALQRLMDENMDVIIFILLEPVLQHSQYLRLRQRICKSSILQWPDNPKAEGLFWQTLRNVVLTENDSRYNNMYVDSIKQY
human TLR9, sequence (Q9NR96 26-1032): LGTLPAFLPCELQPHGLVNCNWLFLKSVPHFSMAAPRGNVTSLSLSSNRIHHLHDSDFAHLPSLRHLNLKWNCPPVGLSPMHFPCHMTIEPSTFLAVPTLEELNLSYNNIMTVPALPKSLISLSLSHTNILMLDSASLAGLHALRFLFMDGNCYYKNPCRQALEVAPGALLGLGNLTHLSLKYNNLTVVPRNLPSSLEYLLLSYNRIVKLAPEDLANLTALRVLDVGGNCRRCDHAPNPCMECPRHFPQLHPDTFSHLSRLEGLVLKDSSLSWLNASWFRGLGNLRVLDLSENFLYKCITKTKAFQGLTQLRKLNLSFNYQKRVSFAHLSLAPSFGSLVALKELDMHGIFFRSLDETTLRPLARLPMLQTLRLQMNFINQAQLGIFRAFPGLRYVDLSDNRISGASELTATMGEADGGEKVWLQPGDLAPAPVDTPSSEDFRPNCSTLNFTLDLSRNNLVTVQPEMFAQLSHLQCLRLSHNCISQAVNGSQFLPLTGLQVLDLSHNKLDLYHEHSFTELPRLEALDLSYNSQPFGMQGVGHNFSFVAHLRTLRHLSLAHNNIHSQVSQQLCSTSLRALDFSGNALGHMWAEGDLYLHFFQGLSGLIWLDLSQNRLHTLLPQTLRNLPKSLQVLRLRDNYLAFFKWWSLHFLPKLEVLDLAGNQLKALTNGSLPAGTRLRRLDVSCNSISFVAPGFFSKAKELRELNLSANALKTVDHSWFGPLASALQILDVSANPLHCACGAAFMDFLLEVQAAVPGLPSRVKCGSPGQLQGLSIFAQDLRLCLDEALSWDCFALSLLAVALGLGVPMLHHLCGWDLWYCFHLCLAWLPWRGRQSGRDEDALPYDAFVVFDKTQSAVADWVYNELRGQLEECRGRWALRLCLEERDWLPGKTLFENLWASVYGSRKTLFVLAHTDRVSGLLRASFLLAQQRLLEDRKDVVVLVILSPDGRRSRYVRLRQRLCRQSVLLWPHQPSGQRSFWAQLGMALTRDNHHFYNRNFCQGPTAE

| IC50 (human TLR7) | IC50 (human TLR8; [1]) | IC50 (human TLR9; [2]) | IC50 (human TLR8; [3]) | IC50 (human TLR9; [4]) | Structure (SMILES) |
| --- | --- | --- | --- | --- | --- |
| 1.6 nM | 8.3 nM | 91 nM |  |  | COc1cc(-c2[nH]c3cnc(C4CCN(CC(N)=O)CC4)c(C)c3c2C(C)C)cn2ncnc12 [Example 11] |
| 3.4 nM | 5.3 nM | 6060 nM |  |  | CNC(=O)CN1CCC(c2ncc3[nH]c(-c4cc(C)nc(C)c4)c(C(C)C)c3c2F)CC1 [Example 150] |
| 10 nM | 42 nM | 766 nM |  |  | CCN(C)C1CCC(c2ncc3[nH]c(-c4cc(OC)c5ncnn5c4)c(C(C)C)c3c2C)CC1 (centres unmarked) [Example 116] |
| 4.4 nM | 0.75 nM | 2650 nM |  |  | Cc1c(-c2[nH]c3cnc(C4CCC(NCC5(C)COC5)CC4)c(F)c3c2C(C)C)cn2ncnc2c1C (centres unmarked) [Example 172] |
| 1.1 nM |  |  | 0.7 nM | 2570 nM | CNC(=O)CN(C)C1CCN(c2ncc3[nH]c(-c4cc(OC)c5ncnn5c4)c(C(C)C)c3c2F)CC1 [Example 221] |
| > 3120 nM | > 3120 nM | 17900 nM |  |  | Cc1cc(-c2[nH]c3cnc(N4CCN(CC(=O)N(C)C)CC4)cc3c2C(C)C)cn2ncnc12 [Example 297] |
| 47 nM | 828 nM | 35400 nM |  |  | Cc1c(-c2[nH]c3cnc(N4CC5(CN(C)C5)C4)c(F)c3c2C(C)C)cn2ncnc2c1C [Example 407] |
| 3.4 nM | 4.5 nM | 455 nM |  |  | COc1cc(-c2[nH]c3cnc(C4CCC(NC(C)C)CC4)c(F)c3c2C(C)C)cn2ncnc12 (centres unmarked) [Example 159] |
| 33 nM | 22 nM | 5590 nM |  |  | COc1cc(-c2[nH]c3cnc(N4CC5(CNC5)C4)c(F)c3c2C(C)C)cn2ncnc12 [Example 355, 6-(4-fluoro-3-isopropyl-5-(2,6-diazaspiro[3.3]heptan-2-yl)-1H-pyrrolo[2,3-c]pyridin-2-yl)-8-methoxy-[1,2,4]triazolo[1,5-a]pyridine] |
| 159 nM | 52 nM | > 50000 nM |  |  | COc1cc(-c2[nH]c3cnc(N4CC5(CN(C(=O)CN6CCOCC6)C5)C4)c(F)c3c2C(C)C)cn2ncnc12 [Example 367, 1-(6-(4-fluoro-3-isopropyl-2-(8-methoxy-[1,2,4]triazolo[1,5-a]pyridin-6-yl)-1H-pyrrolo[2,3-c]pyridin-5-yl)-2,6-diazaspiro[3.3]heptan-2-yl)-2-morpholinoethan-1-one] |
| 1.1 nM | 5.5 nM | 255 nM |  |  | COc1cc(-c2[nH]c3cnc(C4CCC(NC5COC5)CC4)cc3c2C(C)C)cn2ncnc12 (centres unmarked) [Example 330] |
| 46 nM | 15 nM | 17100 nM |  |  | Cc1c(-c2[nH]c3cnc(N4CC5(CN(CC6(C)COC6)C5)C4)c(F)c3c2C(C)C)cn2ncnc2c1C [Example 405] |
| 1.5 nM | 0.55 nM | 3010 nM |  |  | COc1cc(-c2[nH]c3cnc(N4CCC(N5CC6(COC6)C5)CC4)c(F)c3c2C(C)C)cn2ncnc12 [Example 254] |
| 28 nM | 41 nM | 868 nM |  |  | COc1cc(-c2[nH]c3cnc(C4CCC(NC[C@@H](F)C(C)(C)O)CC4)c(C)c3c2C(C)C)cn2ncnc12 (some centres unmarked) [Example 117] |
| 7.6 nM | 47 nM | 166 nM |  |  | COc1cc(-c2[nH]c3cnc(C4CCC(NC(C)C)CC4)cc3c2C(C)C)cn2ncnc12 (centres unmarked) [Example 315] |
| 3 nM | 0.85 nM | 657 nM |  |  | COc1cc(-c2[nH]c3cnc(N4CCC(NC(C)C)CC4)cc3c2C(C)C)cn2ncnc12 [Example 307] |
| 7.3 nM | 5 nM | 6310 nM |  |  | COc1cc(-c2[nH]c3cnc(N4CCN(CC(N)=O)CC4)c(C)c3c2C(C)C)cn2ncnc12 [Example 155] |
| 1.9 nM | 4.1 nM | 5650 nM |  |  | CCN(C)C1CCC(c2ncc3[nH]c(-c4cn5ncnc5c(C)c4C)c(C(C)C)c3c2F)CC1 (centres unmarked) [Example 263] |
| 0.76 nM | 2.6 nM | 1790 nM |  |  | COc1cc(-c2[nH]c3cnc(C4CCN(C(C)C)CC4)c(F)c3c2C(C)C)cn2ncnc12 [Example 18] |
| 7.2 nM | 1.9 nM | 46800 nM |  |  | Cc1c(-c2[nH]c3cnc(N4CCN(CCS(C)(=O)=O)CC4)c(F)c3c2C(C)C)cn2ncnc2c1C [Example 398] |
| 1.6 nM | 0.59 nM | 9180 nM |  |  | COc1cc(-c2[nH]c3cnc(N4CCC(NC5COC5)CC4)c(F)c3c2C(C)C)cn2ncnc12 [Example 42, 1-(4-fluoro-3-isopropyl-2-(8-methoxy-[1,2,4]triazolo[1,5-a]pyridin-6-yl)-1H-pyrrolo[2,3-c]pyridin-5-yl)-N-(oxetan-3-yl)piperidin-4-amine] |
| 1.5 nM | 1.3 nM | 6080 nM |  |  | COc1cc(-c2[nH]c3cnc(N4CCC(N(C)CC(=O)N(C)C)CC4)c(F)c3c2C(C)C)cn2ncnc12 [Example 72] |
| 1.3 nM | 0.76 nM | 5250 nM |  |  | Cc1cc(-c2[nH]c3cnc(N4CCC(N(C)C5COC5)CC4)c(F)c3c2C(C)C)cn2ncnc12 [Example 130] |
| 27 nM |  |  | 2.7 nM | > 50000 nM | Cc1c(-c2[nH]c3cnc(N4CCN(C(=O)CN5CCOCC5)C[C@H]4C)c(F)c3c2C(C)C)cn2ncnc2c1C [Example 471] |

| IC50 (human TLR7) | IC50 (human TLR8; [1]) | IC50 (human TLR9; [2]) | IC50 (human TLR8; [3]) | IC50 (human TLR9; [4]) | Structure (SMILES) |
| --- | --- | --- | --- | --- | --- |
| 12 nM | 6.6 nM | 26500 nM |  |  | COc1cc(-c2[nH]c3cnc(N4CCN(CCS(C)(=O)=O)CC4)c(C)c3c2C(C)C)cn2ncnc12 [Example 186] |
| 6.4 nM | 16 nM | 5530 nM |  |  | CNCC(=O)N1CCC(c2ncc3[nH]c(-c4cc(C)c5ncnn5c4)c(C(C)C)c3c2F)CC1 [Example 39] |
| 3.4 nM | 5 nM | 2130 nM |  |  | Cc1cc(-c2[nH]c3cnc(C4CCC(N5CC6(COC6)C5)CC4)c(F)c3c2C(C)C)cn2ncnc12 (centres unmarked) [Example 132] |
| 0.35 nM | 1.2 nM | 2460 nM |  |  | COc1cc(-c2[nH]c3cnc(N4CCC(NC(C)C)CC4)c(C)c3c2C(C)C)cn2ncnc12 [Example 202] |
| 14 nM | 10 nM | 400 nM |  |  | Cc1c(-c2[nH]c3cnc(C4CCC(NCC(C)(C)O)CC4)c(C)c3c2C(C)C)cn2ncnc2c1C (centres unmarked) [Example 122] |
| 2.1 nM | 7.1 nM | 34 nM |  |  | COc1cc(-c2[nH]c3cnc(C4CCC(NC5CCOC5)CC4)cc3c2C(C)C)cn2ncnc12 (centres unmarked) [Example 317] |
| 3 nM | 4.7 nM | 7630 nM |  |  | COc1cc(-c2[nH]c3cnc(N4CCN(CCS(C)(=O)=O)CC4)c(Cl)c3c2C(C)C)cn2ncnc12 [Example 294] |
| 8.7 nM | 4 nM | 549 nM |  |  | CCN(C)C1CCC(c2cc3c(C(C)C)c(-c4cc(OC)c5ncnn5c4)[nH]c3cn2)C1 (centres unmarked) [Example 177] |
| 12 nM | 16 nM | 276 nM |  |  | COc1cc(-c2[nH]c3cnc(C4CCC(N5CC6(COC6)C5)C4)cc3c2C(C)C)cn2ncnc12 (centres unmarked) [Example 208] |
| 1.1 nM | 0.38 nM | 6160 nM |  |  | CCN1CCN(c2ncc3[nH]c(-c4cc(OC)c5ncnn5c4)c(C(C)C)c3c2F)CC1 [Example 389] |
| 15 nM | 23 nM | 14800 nM |  |  | Cc1cc(-c2[nH]c3cnc(C4CCN(C5COC5)CC4)c(F)c3c2C(C)C)cc(C)n1 [Example 251] |
| 40 nM | 27 nM | 676 nM |  |  | Cc1c(-c2[nH]c3cnc(C4CCC(NC5COC5)CC4)c(C)c3c2C(C)C)cn2ncnc2c1C (centres unmarked) [Example 91] |
| 28 nM | 190 nM | 217 nM |  |  | COc1cc(-c2[nH]c3cnc(C4CCN(C(=O)CN(C)C)CC4)cc3c2C(C)C)cn2ncnc12 [Example 343] |
| 62 nM | 21 nM | 28500 nM |  |  | Cc1c(-c2[nH]c3cnc(C4CCC(NC56CC(C5)C6)CC4)c(F)c3c2C(C)C)cn2ncnc2c1C (centres unmarked) [Example 238] |
| 7.5 nM | 16 nM | 2070 nM |  |  | CNCC(=O)N1CCC(c2ncc3[nH]c(-c4cc(C)nc(C)c4)c(C(C)C)c3c2F)CC1 [Example 214] |
| 0.66 nM | 1.1 nM | 939 nM | 1.1 nM | 939 nM | Cc1c(N2CCC(NC(C)C)CC2)ncc2[nH]c(-c3cc(C)c4ncnn4c3)c(C(C)C)c12 [Example 236] |
| 1.9 nM | 7.9 nM | 1870 nM |  |  | Cc1cc(-c2[nH]c3cnc(C4CCNCC4)c(F)c3c2C(C)C)cn2ncnc12 [Example 184] |
| 5 nM | 6.4 nM | 4090 nM |  |  | Cc1cc(-c2[nH]c3cnc(C4CCN(CC(N)=O)CC4)c(F)c3c2C(C)C)cc(C)n1 [Example 152] |
| 1.4 nM | 4.7 nM | 1080 nM |  |  | Cc1c(-c2[nH]c3cnc(C4CCC(NCC(F)F)CC4)cc3c2C(C)C)cn2ncnc2c1C (centres unmarked) [Example 350] |
| 23 nM | 6.4 nM | 7940 nM |  |  | Cc1c(-c2[nH]c3cnc(C4CCC(NC[C@@H](F)C(C)(C)O)CC4)c(F)c3c2C(C)C)cn2ncnc2c1C (some centres unmarked) [Example 175] |
| 4.3 nM | 11 nM | 8620 nM |  |  | COc1cc(-c2[nH]c3cnc(C4CCC(N(C)CC(N)=O)CC4)c(F)c3c2C(C)C)cn2ncnc12 (centres unmarked) [Example 78] |
| 2.1 nM | 6.2 nM | 132 nM |  |  | Cc1c(-c2[nH]c3cnc(C4CCN(CC(=O)N(C)C)CC4)cc3c2C(C)C)cn2ncnc2c1C [Example 31] |
| 0.98 nM | 0.42 nM | 1860 nM |  |  | Cc1c(-c2[nH]c3cnc(N4CCC(N(C)C(C)C)CC4)c(F)c3c2C(C)C)cn2ncnc2c1C [Example 52] |
